Patent publication US11576979B2, “Pyrrolobenzodiazepine prodrugs and antibody conjugates thereof” (GENENTECH, INC., priority 2016, dated 2023)
Several values for one entry are separate records, joined by “and”; a condition that tells them apart may be missing. Equal values may be shown once.

What was measured:
[1] = test system: WSU-DLCL2; test: CELLTITER GLO cell proliferation assay (Example 6); format: cell-based; conditions: Homo sapiens, WSUDLCL2, read-out: IC50 potency WSU-DLCL2, Table 4; data in parenthesis = repeat evaluations
Procedure: (§1) The toxicity of PBD monomer disulfide prodrugs and diaphorase prodrugs were evaluated against KPL-4, WSU-DLCL2, HCT-116, HCC1395 and Jurkat cell cultures. […] KPL-4 cells further have a high expression of DTD on the order of about 839 nRPKM (where nRPKM refers to normalized reads per Kb of transcript length per million mapped read).
(§2) Potency of the disulfide and DT-diaphorase prodrugs was measured by a cell proliferation assay employing the following protocol (CELLTITER GLO™ Luminescent Cell Viability Assay, Promega Corp.). First, an aliquot of 40 ul of cell culture containing about 8000 cells of WSU-DLCL2 cells (low NQO1 gene and GSH level), 4000 cells of KPL-4 (high NQO1 gene and GSH level), HCT-116 cells, HCC1395 cells or Jurkat cells in RPMI-1640 culture medium (supplemented with 10% fetal bovine serum, 2 mM glutamine, 50 uM cystine, and 0.015 g/L L-methionine) was deposited in each well of a 384-well flat clear bottom white polystyrene tissue culture-treated microplates (Corning, N.Y.). Second, control wells were prepared containing medium with and without cells. Third, compounds with and without disulfide or DT-diaphorase prodrugs (n=3) were added to the experimental wells using ECHO acoustic liquid handling technology (Labcyte Inc, Sunnyvale, Calif.) to create a 10-point dose-response curve in triplicate with 1:3× serial dilution. Fourth, cells were cultured in a humidified incubator set at 37° C. and maintaining an atmosphere of 5% CO2. Fifth, the plates were equilibrated to room temperature for approximately 30 minutes. Sixth, a volume of CELLTITER GLO™ Reagent equal to the volume of cell culture medium present in each well was added. Seventh, the contents were mixed for 10 minutes on an orbital shaker in the dark to induce cell lysis. Eighth, the plate was incubated at room temperature for 30 minutes to stabilize the luminescence signal. Ninth, luminescence was recorded and reported in graphs as % activity where RLU (relative luminescence units) was normalized to controls (no compound control minus no cell control). Tenth, data was plotted as individual points for each replicate (n=3) for each antibody as the mean of luminescence for each set of replicates, with standard deviation error bars.

[2] = test system: KPL-4; test: CELLTITER GLO cell proliferation assay (Example 6); format: cell-based; conditions: KPL4, read-out: IC50 potency KPL-4, Table 4; data in parenthesis = repeat evaluations
Procedure: as §1, §2

[3] = test system: SK-BR-3; test: CellTiter-Glo toxicity, 3 days (Example 7); format: cell-based; conditions: Homo sapiens, SK-BR-3, 72 h, read-out: SK-BR-3 IC50 (nM)
Procedure: The toxicity of PBD monomer disulfide prodrugs 1 to 4, PBD dimer disulfide prodrugs 1 and 4, PBD monomer control 1 and PBD dimer control 1 were evaluated against SK-BR-3 cell cultures. […] The HER2-positive breast cancer cell line, SK-BR-3, was obtained internally at Genentech after having been verified by sequence analysis. The cells were grown at 37 Celsius in DMEM+10% FBS supplemented with 2 mM L-glutamine for the duration of this assay. On the first day of the experiment, designated “Day −1”, SK-BR-3 cells were harvested from tissue culture flasks, counted, and then seeded into 96-well plates at a concentration of 7,500 cells per well. The next day, designated “Day 0”, cell culture media was removed from the cells and replaced with 100 uL of fresh media containing a serial dilution (1:3) of the compounds in Table 5 below. The plates were then returned to the 37 Celsius incubator and allowed to incubate for 3 days. On “Day 3” of the assay, the plates were removed from the incubator and allowed to equilibrate to room temperature before adding 100 uL of room-temperature CellTiter-Glo reagent (Promega). The plates were then agitated at 300 rpm for 10 minutes. The luminescence signal generated from this reaction was recorded on an Envision plate reader (Perkin-Elmer). The data were arranged in Excel (Microsoft) and graphed in Kaleidagraph (Synergy Software).

[4] = test system: UACC-257; test: CellTiter-Glo toxicity, 4 days (Example 9); format: cell-based; conditions: Homo sapiens, UACC-257, 96 h, 4 days of drug incubation; Table 7A
Procedure: (§3) The toxicity of various PBD monomer disulfide prodrugs and PBD dimer disulfide prodrugs was evaluated on UACC-257, Igrov-1 and A2058 cell lines. Cells were seeded in 384-well plate and treated with drug 24 hours later. After 4 days of drug incubation, the cell viability was determined using Promega CellTiter-Glo luminescent reagent, which measures ATP level (an indirect measure of cell number). The luminescent intensity was measured on PerkinElmer Envision reader. The relative cell viability was calculated by normalizing to non-drug treatment control and was graphed using KleidaGraph software package. IC50 value was determined as the concentration to obtain 50% of the maximum cell killing.

[5] = test system: Igrov-1; test: CellTiter-Glo toxicity, 4 days (Example 9); format: cell-based; conditions: Homo sapiens, IGROV-1, 96 h, 4 days of drug incubation; Table 7A
Procedure: as §3

[6] = test system: A2058; test: CellTiter-Glo toxicity, 4 days (Example 9); format: cell-based; conditions: Homo sapiens, A2058, 96 h, 4 days of drug incubation; Table 7A
Procedure: as §3

[7] = Disulfide cleavage by glutathione (GSH), LC/MS; format: physicochemical; conditions: 15 uM compound, 4 mM GSH, pH 7.0, 37 C
Procedure: (§4) For disulfide cleavage determination, the compounds were incubated at 15 μM with 0.2 mM cysteine or 4 mM GSH in 100 mM Tris buffer pH 7.0 containing 5% methanol at 37° C. Aliquots were taken at specified time points and the samples were analyzed by LC/MS on Sciex TripleTOF 5600 on a Hypersil Gold C18 column (100×2.1, 1.9 Thermo Scientific). The column was eluted by a gradient of buffer A (0.1% formic acid in 10 mM ammonium acetate) to buffer B (0.1% formic acid in 10 mM ammonium acetate in 90% acetonitrile), 5% B 0-0.5 min, 5-25% B 0.5-8 min, 25-75% B 8-13 min, and 75-95% B 13-13.5 min, 95% B 13.5-14.5 min, 95-5% B 14.5-15 min at 0.4 mL/min. All products were separated and characterized by LC/MS/MS in a positive ESI ion mode. All analytes had the protonated molecular MH+ as the major species with little source fragmentation. Full scan accurate mass peak areas were used to estimate relative abundance of each component.

[8] = Disulfide cleavage by cysteine, LC/MS; format: physicochemical; conditions: 15 uM compound, 0.2 mM cysteine, pH 7.0, 37 C
Procedure: as §4

[9] = GSH adduct formation and stability of quinones; format: physicochemical; conditions: 15 mM GSH; for % Rem. (percent remaining after 3 hours): 25 uM, pH 7.0, 37 C; for GSH Adduct / Degr (degradation): 3 hours
Procedure: For degradation analysis, the compounds were incubated at 25 μM with 15 mM GSH in 200 mM Tris buffer pH 7.0 containing 5% methanol at 37° C. for 3 hours. The control incubations were conducted without GSH. The samples were analyzed by LC/MS on Sciex TripleTOF 5600 on a Hypersil Gold C18 column (100×2.1, 1.9 μM, Thermo Scientific). The column was eluted by a gradient of buffer A (0.1% formic acid in 10 mM ammonium acetate) to buffer B (0.1% formic acid in 10 mM ammonium acetate in 90% acetonitrile), 5% B 0-0.5 min, 5-25% B 0.5-8 min, 25-75% B 8-13 min, and 75-95% B 13-13.5 min, 95% B 13.5-14.5 min, 95-5% B 14.5-15 min at 0.4 mL/min. All products were separated and characterized by LC/MS/MS in a positive ESI ion mode. Full scan accurate mass peak areas were used to estimate relative abundance of each component.

[10] = biological target: T1, DT Diaphorase (Homo sapiens, UniProt P15559); test: in vitro DT diaphorase activated drug release assay (NADPH depletion); format: biochemical; conditions: 90 min
T1 construct: purchased Sigma D1315
T1 sequence (P15559 whole entry): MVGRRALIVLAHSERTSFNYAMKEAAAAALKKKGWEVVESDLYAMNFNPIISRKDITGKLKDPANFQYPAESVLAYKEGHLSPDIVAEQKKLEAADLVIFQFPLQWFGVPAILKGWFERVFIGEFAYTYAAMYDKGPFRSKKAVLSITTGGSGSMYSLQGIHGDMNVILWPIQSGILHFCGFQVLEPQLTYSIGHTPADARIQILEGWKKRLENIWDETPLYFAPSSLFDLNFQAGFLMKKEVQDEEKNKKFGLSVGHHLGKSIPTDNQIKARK
Procedure: An in vitro DT diaphorase activated drug release assay was used to measure NADPH depletion. DT diaphorase activated release of Norfloxacin and Payload (PBD) was measured by the in vitro depletion of NADPH. The assay method was modified from the absorbance measurement of NADPH at A340 (Osman et. al, Chemico-Biological Interactions 147 (2004) 99-108) due to the interference of compounds. The depletion of NADPH was measured by monitoring the decrease of fluorescence intensity of NADPH at 480 nm after being excited at […]. […] Prior to assay, dilute the stock to 1 mM as the 5× working solution; (5) DT Diaphorase specific Inhibitor: prepare 40 mM stock of Dicumarol (Sigma, Cat #M1390-5G, MW=336.29) in 0.13 N NaOH, stored at 4° C. Dilute the stock to 250 uM as the 5× working solution; (6) Compounds: dilute the Norfloxacin and PBD conjugated compounds in assay buffer to 250 uM as the 5× working solution; and (7) 384 well black plate with clear bottom. For the assay procedure: (1) The reaction mix containing 0.5 uM DT-D, 50 uM compound, […] NADPH was set up in a 384 well plate at 50 ul/well. For the control with DT Diaphorase inhibitor, Dicumarol was added in the reaction mix at final 50 uM for each compound. Reaction mix containing NADPH and compound only was also added as the baseline controls. The DT Diaphorase was added in the last step; and (2) The reaction mixes were incubated at room temperature for 5, 30, 90 min. The fluorescence intensity (RFU) of DNAPH was recorded on M1000 plate reader (Tecan) with excitation at 340 nm and emission at 480 nm. For data analysis, data was analyzed and plotted using Prism GraphPad 6. The depletion of NADPH was calculated by the formula below at reaction time point at 90 min wherein: % NADPH depletion=[…].

Row | % Rem. (percent remaining after 3 hours) [9] [%] | GSH Adduct [9] | NADPH Dep. (NADPH depletion at 90 minutes) [10] | Degr (degradation) [9] | SMILES | IC50 [1] [µM] | IC50 [2] [µM] | IC50 [3] [nM] | IC50 [4] [µM] | IC50 [5] [µM] | IC50 [6] [µM] | % Remaining at 24 h by GSH [7] | % Remaining at 24 h by Cys [8] [%]
1 |  |  |  |  | C=C1C[C@H]2C(O)N(C(=O)OCC3(SSCC)CCC3)c3cc(OC)c(OC)cc3C(=O)N2C1 (some centres unmarked) [PBD monomer disulfide prodrug 3] | 0.531 | 0.36 | 616 | 0.356 | 0.254 | 0.0752 | 2.90% | 73.5
2 |  |  |  |  | C=C1C[C@H]2C(O)N(C(=O)OCC(C)(C)SSC(C)(C)C)c3cc(OC)c(OC)cc3C(=O)N2C1 (some centres unmarked) [PBD monomer disulfide prodrug 4] | > 10 | > 10 | > 10000 | 19.2 | 12.6 | 8.11 | 99.9% | 99.9
3 |  |  |  |  | C=C1C[C@H]2C(O)N(C(=O)OCCSSC(C)C)c3cc(OC)c(OC)cc3C(=O)N2C1 (some centres unmarked) [PBD monomer disulfide prodrug 2] | 1.02 | 0.497 | 1760 | 1.86 | 1.87 | 0.635 | 0.4% and 0% | 77.6
4 | 92.5 | yes | None |  | COC1=C(C)C(=O)c2c(c(C)c(CO)n2C)C1=O |  |  |  |  |  |  |  | 
5 |  |  |  |  | C=C1C[C@H]2C(O)N(C(=O)OCCSSCC)c3cc(OC)c(OC)cc3C(=O)N2C1 (some centres unmarked) [PBD monomer disulfide prodrug 1] | 0.274 | 0.324 | 331 | 0.276 | 0.123 | 0.0829 | 0.5% | 17.9
6 | 50 |  | 2.01% | yes | CCn1cc(C(=O)O)c(=O)c2cc(F)c(N3CCN(C(=O)OCc4c5c(n(C)c4C)C(=O)C=C(OC)C5=O)CC3)cc21 |  |  |  |  |  |  |  | 
7 | 87 | yes | 74.83% |  | COC1=CC(=O)c2c(c(CO)c(C)n2C)C1=O |  |  |  |  |  |  |  | 
8 | 63 |  | 94/0 | yes | CCn1cc(C(=O)O)c(=O)c2cc(F)c(N3CCN(C(=O)OCc4ccc(NC(=O)OCc5cc6c(n5C)C(=O)C=C(OC)C6=O)cc4)CC3)cc21 |  |  |  |  |  |  |  | 
9 |  |  |  |  | C=C1C[C@H]2C(O)N(C(=O)OCC3(SSCC)CCC3)c3cc(OCCCCCOc4cc5c(cc4OC)C(=O)N4CC(=C)C[C@H]4C(O)N5C(=O)OCC4(SSCC)CCC4)c(OC)cc3C(=O)N2C1 (some centres unmarked) [PBD dimer disulfide prodrug 4] |  |  | 3.09 | 0.0078 | 0.0025 |  |  | 
10 | 90 | yes | 95.99% |  | COC1=CC(=O)c2c(c(CO)cn2C)C1=O |  |  |  |  |  |  |  | 
11 | 0 |  | 96.92% | yes | COC1=CC(=O)c2c(c(C=O)c(CO)n2C)C1=O [2-(hydroxymethyl)-5-methoxy-1-methyl-4,7-dioxo-4,7-dihydro-1H-indole-3-carbaldehyde] |  |  |  |  |  |  |  | 

Row | SMILES | % Rem. (percent remaining after 3 hours) [9] [%] | GSH Adduct [9] | NADPH Dep. (NADPH depletion at 90 minutes) [10] | Degr (degradation) [9] | IC50 [1] [µM] | IC50 [2] [µM] | IC50 [3] [nM] | IC50 [4] [µM] | IC50 [5] [µM] | IC50 [6] [µM] | % Remaining at 24 h by GSH [7] | % Remaining at 24 h by Cys [8] [%]
12 | C=C1C[C@H]2C(O)N(C(=O)OCc3ccc(NC(=O)OCc4cc5c(n4C)C(=O)C=C(OC)C5=O)cc3)c3cc(OC)c(OC)cc3C(=O)N2C1 (some centres unmarked) [PBD monomer diaphorase prodrug 3] |  |  | >90% at |  | 0.443 | 0.351 |  |  |  |  |  | 
